Measured values reported in patent publication US8426447B2, “Spiro-tricyclic ring compounds as beta-secretase modulators and methods of use” (Amgen Inc., priority 2008, dated 2013).

Assays:
BACE1 [1] = biological target: T1, BACE1 (Homo sapiens, UniProt P56817); test: In Vitro Enzymatic BACE FRET (Fluorescence Resonance Energy Transfer) Assay; assay type: biochemical; settings: read-out: BACE1 FRET assay
In short: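 Acetate buffer at pH 4.2 with 10% DMSO and 100 uM genapol hosts the enzymatic reaction, initiated by 50 nM FRET substrate and allowed to proceed one hour. Tris quench to neutral pH precedes the fluorescence measurement.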

BACE1 [2] = biological target: T1, BACE1; test: In Vitro BACE Cell-based Assay (HEK cell assay): Aβ40 in conditioned medium of cells stably expressing Amyloid Precursor Protein, sandwich ELISA; settings: read-out: HEK cell assay
In short: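 APP-expressing cells were cultured 24 h in DMEM/10% FBS, then treated 24 h with compounds in 10-point dose response (top 100 μM or 10 μM; 0.1% DMSO final). Secreted Aβ40 was quantified by sandwich ELISA (pAb40 capture, biotinylated 6E10 detection, Europium TRF); IC50 from percent inhibition versus concentration.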

[3] = in vitro BACE FRET enzyme assay, IC50 class symbols
[4] = HEK cell-based assay, Aβ40 in conditioned medium, IC50 class symbols

T1 sequence (P56817 46-501, species assumed): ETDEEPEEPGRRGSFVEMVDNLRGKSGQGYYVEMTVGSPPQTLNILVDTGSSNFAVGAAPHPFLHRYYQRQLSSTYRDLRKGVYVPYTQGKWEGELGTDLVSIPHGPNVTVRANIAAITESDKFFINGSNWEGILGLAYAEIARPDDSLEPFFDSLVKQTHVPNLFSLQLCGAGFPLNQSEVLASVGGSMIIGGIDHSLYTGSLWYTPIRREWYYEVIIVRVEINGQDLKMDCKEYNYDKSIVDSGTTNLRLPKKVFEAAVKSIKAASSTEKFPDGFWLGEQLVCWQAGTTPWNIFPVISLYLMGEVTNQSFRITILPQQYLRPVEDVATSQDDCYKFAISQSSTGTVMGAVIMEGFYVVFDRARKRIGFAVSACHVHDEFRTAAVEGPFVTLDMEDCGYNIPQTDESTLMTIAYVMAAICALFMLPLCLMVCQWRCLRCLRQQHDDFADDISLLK

CC(C)(O)CCc1ccc2c(c1)[C@]1(COC(N)=N1)c1cc(-c3cccnc3)ccc1O2 [compound 193]
IC50 (BACE1 [1]; Table III, IC50's in uM ranges): < 0.1 µM | IC50 (BACE1 [2]; Table III, IC50's in uM ranges): < 0.1 µM

CC(C)(C)COc1ccc2c(c1)[C@@]1(COC(N)=N1)c1cc(-c3ccc(C#N)cc3)ccc1O2 [Example 128, (R)-4-(2-amino-2′-(neopentyloxy)-5H-spiro[oxazole-4,9′-xanthene]-7′-yl)benzonitrile]
IC50 (BACE1 [1]; Table III, IC50's in uM ranges): < 0.1 µM | IC50 (BACE1 [2]; Table III, IC50's in uM ranges): 0.1 to 1 µM

NC1=N[C@@]2(CO1)c1cc(-c3cc(Cl)ccc3F)ccc1Oc1cnc(-c3cccnc3)cc12 [compound 367]
IC50 (BACE1 [1]; [3]): < 0.1 µM | IC50 (BACE1 [2]; [4]): < 0.1 µM

CC1(COc2cnc3c(c2)[C@]2(COC(N)=N2)c2cc(-c4ccccc4)ccc2O3)COC1 [compound 459]
IC50 (BACE1 [1]): < 0.1 µM | IC50 (BACE1 [2]; HEK cells): < 0.1 µM

COc1ccc2c(c1)[C@]1(COC(N)=N1)c1cc(-c3cnc4ccccc4c3)ccc1O2 [compound 633]
IC50 (BACE1 [1]; Table IV, class symbols): 1 to 5 µM | IC50 (BACE1 [2]; Table IV, class symbols): 1 to 5 µM

NC1=N[C@@]2(CO1)c1cc(-c3cccnc3)ccc1Oc1ncccc12 [compound 594]
IC50 (BACE1 [1]; Table IV, class symbols): > 5 µM | IC50 (BACE1 [2]; Table IV, class symbols): > 5 µM

CC(C)(O)COc1ccc2c(c1)[C@]1(COC(N)=N1)c1cc(-c3ccccc3)ccc1O2 [compound 221]
IC50 (BACE1 [1]; Table III, IC50's in uM ranges): < 0.1 µM | IC50 (BACE1 [2]; Table III, IC50's in uM ranges): 0.1 to 1 µM

NC1=N[C@]2(CO1)c1cc(CCCCO)ccc1Oc1ccc(-c3cccnc3)cc12 [compound 194]
IC50 (BACE1 [1]; Table III, IC50's in uM ranges): < 0.1 µM | IC50 (BACE1 [2]; Table III, IC50's in uM ranges): < 0.1 µM

CC(C)(C)COc1ccc2c(c1)[C@@]1(COC(N)=N1)c1cc(-c3cncc(F)c3)cnc1O2 [compound 753]
IC50 (BACE1 [1]): < 0.1 µM | IC50 (BACE1 [2]): < 0.1 µM

CC(C)(C)COc1ccc2c(c1)[C@]1(COC(N)=N1)c1cc(-c3cccnc3)ncc1O2 [compound 750]
IC50 (BACE1 [1]): < 0.1 µM | IC50 (BACE1 [2]): 0.1 to 1 µM

COC(C)(C)COc1cnc2c(c1)[C@@]1(COC(N)=N1)c1cc(-c3ccccc3)ccc1O2 [compound 349]
IC50 (BACE1 [1]; [3]): 0.1 to 1 µM | IC50 (BACE1 [2]; [4]): 1 to 5 µM

COc1ccc2c(c1)C1(COC(N)=N1)c1cc(-c3ccccc3C)ccc1O2 (stereo not drawn) [Example 32, 2′-methoxy-7′-(2-methylphenyl)spiro[1,3-oxazole-4,9′-xanthen]-2-amine]
IC50 (BACE1 [1]; Table 1): > 5 µM | IC50 (BACE1 [2]; Table 1, Aβ40, 24 h incubation): 1 to 5 µM

CCCOc1ccc2c(c1)C1(COC(N)=N1)c1cc(-c3cncnc3)ccc1O2 (stereo not drawn) [Example 9, 2′-propoxy-7′-(5-pyrimidinyl)spiro[1,3-oxazole-4,9′-xanthen]-2-amine]
IC50 (BACE1 [1]; Table 1): < 0.1 µM | IC50 (BACE1 [2]; Table 1, Aβ40, 24 h incubation): 0.1 to 1 µM

NC1=N[C@@]2(CO1)c1cc(-c3cccnc3)ccc1Oc1ncc(N3CCOCC3)cc12 [compound 539]
IC50 (BACE1 [1]; Table IV, class symbols): < 0.1 µM | IC50 (BACE1 [2]; Table IV, class symbols): < 0.1 µM

N#Cc1ccccc1Oc1ccc2c(c1)[C@]1(COC(N)=N1)c1cc(Br)ccc1O2 [compound 997]
IC50 (BACE1 [1]): > 5 µM | IC50 (BACE1 [2]): > 5 µM

CC(C)(F)COc1ccc2c(c1)[C@]1(COC(N)=N1)c1cc(-c3cccnc3)cnc1O2 [compound 177]
IC50 (BACE1 [1]; Table III, IC50's in uM ranges): < 0.1 µM | IC50 (BACE1 [2]; Table III, IC50's in uM ranges): < 0.1 µM

CC1(COc2ccc3c(c2)[C@]2(COC(N)=N2)c2cc(Br)cnc2O3)COC1 [compound 164]
IC50 (BACE1 [1]; Table III, IC50's in uM ranges): 0.1 to 1 µM | IC50 (BACE1 [2]; Table III, IC50's in uM ranges): 1 to 5 µM

COc1cnc2c(c1)[C@]1(COC(N)=N1)c1cc(Br)ccc1O2 [compound 542]
IC50 (BACE1 [1]; Table IV, class symbols): 1 to 5 µM | IC50 (BACE1 [2]; Table IV, class symbols): > 5 µM

NC1=N[C@@]2(CO1)c1cc(-c3cccnc3)ccc1Oc1cnc(N3CCN(CC(=O)O)CC3)cc12 [compound 396]
IC50 (BACE1 [1]; [3]): < 0.1 µM | IC50 (BACE1 [2]; [4]): 0.1 to 1 µM

NC1=N[C@@]2(CO1)c1cc(Br)ccc1Oc1ccc(Cl)nc12 [compound 855]
IC50 (BACE1 [1]; Table IV, class symbols): > 5 µM | IC50 (BACE1 [2]; Table IV, class symbols): > 5 µM

CC(C)(C)COc1ccc2c(c1)[C@]1(COC(N)=N1)c1cc(-c3cccc(S(C)(=O)=O)c3)ccc1O2 [compound 915]
IC50 (BACE1 [1]; Table IV, class symbols): < 0.1 µM | IC50 (BACE1 [2]; Table IV, class symbols): 1 to 5 µM

NC1=N[C@@]2(CO1)c1cc(-c3cccnc3F)ccc1Oc1ccc([C@H]3CCCCO3)cc12 [compound 365]
IC50 (BACE1 [1]; [3]): < 0.1 µM | IC50 (BACE1 [2]; [4]): < 0.1 µM

COc1ccc(-c2ccc3c(c2)[C@@]2(COC(N)=N2)c2cc(OCC(C)(C)C)ccc2O3)cn1 [Example 87, (4S)-2′-(2,2-dimethylpropoxy)-7′-(6-methoxy-3-pyridinyl)spiro[1,3-oxazole-4,9′-xanthen]-2-amine]
IC50 (BACE1 [1]; Table II): 0.1 to 1 µM | IC50 (BACE1 [2]; Table II, Aβ40, 24 h incubation): 1 to 5 µM

NC1=N[C@]2(CO1)c1cc(-c3cc4ccccc4s3)ccc1Oc1ncccc12 [compound 618]
IC50 (BACE1 [1]; Table IV, class symbols): > 5 µM | IC50 (BACE1 [2]; Table IV, class symbols): 1 to 5 µM

CC(C)(C)COc1ccc2c(c1)[C@]1(COC(N)=N1)c1cc(-c3cccs3)ccc1O2 [compound 834]
IC50 (BACE1 [1]; Table IV, class symbols): < 0.1 µM | IC50 (BACE1 [2]; Table IV, class symbols): 1 to 5 µM

COc1ccc2c(c1)[C@@]1(COC(N)=N1)c1cc(Br)cnc1O2 [compound 680]
IC50 (BACE1 [1]): > 5 µM | IC50 (BACE1 [2]): > 5 µM

NC1=N[C@@]2(CO1)c1cc(-c3cncnc3)ccc1Oc1cnc(-c3ccccc3)cc12 [compound 546]
IC50 (BACE1 [1]; Table IV, class symbols): < 0.1 µM | IC50 (BACE1 [2]; Table IV, class symbols): < 0.1 µM

CC(C)(C)COc1cnc2c(c1)[C@]1(COC(N)=N1)c1cc(Br)ccc1O2 [compound 388]
IC50 (BACE1 [1]; [3]): 0.1 to 1 µM | IC50 (BACE1 [2]; [4]): 1 to 5 µM

CC(C)(O)COc1ccc2c(c1)[C@]1(COC(N)=N1)c1cc(-c3cccnc3F)ccc1O2 [compound 906]
IC50 (BACE1 [1]; Table IV, class symbols): < 0.1 µM | IC50 (BACE1 [2]; Table IV, class symbols): < 0.1 µM

COC(C)(C)CCc1ccc2c(c1)[C@]1(COC(N)=N1)c1cc(-c3cccnc3)ccc1O2 [compound 1001]
IC50 (BACE1 [1]): < 0.1 µM | IC50 (BACE1 [2]): < 0.1 µM

CC(C)(C)COc1ccc2c(c1)[C@]1(COC(N)=N1)c1cc(-c3c[nH]cn3)ccc1O2 [compound 978]
IC50 (BACE1 [1]): 0.1 to 1 µM | IC50 (BACE1 [2]): 1 to 5 µM

NC1=N[C@]2(CO1)c1cc(-c3cccc(OC(F)(F)F)c3)ccc1Oc1ncccc12 [compound 595]
IC50 (BACE1 [1]; Table IV, class symbols): 0.1 to 1 µM | IC50 (BACE1 [2]; Table IV, class symbols): 1 to 5 µM

NC1=N[C@]2(CO1)c1cc(-c3ccc(F)cc3)ccc1Oc1ncc(C3=CCOCC3)cc12 [compound 691]
IC50 (BACE1 [1]): 1 to 5 µM | IC50 (BACE1 [2]): 1 to 5 µM

CC(C)(C)COc1ccc2c(c1)[C@]1(COC(N)=N1)c1cc(-c3cncs3)ccc1O2 [compound 971]
IC50 (BACE1 [1]): < 0.1 µM | IC50 (BACE1 [2]): 1 to 5 µM

COc1ccc2c(c1)[C@]1(COC(N)=N1)c1cc(NC(=O)c3ccc(Cl)nc3)ccc1O2 [compound 617]
IC50 (BACE1 [1]; Table IV, class symbols): 1 to 5 µM | IC50 (BACE1 [2]; Table IV, class symbols): 1 to 5 µM

CC(C)(C)COc1ccc2c(c1)[C@]1(COC(N)=N1)c1cc(C(=O)N3CCCC3)ccc1O2 [218b]
IC50 (BACE1 [1]; Table III, IC50's in uM ranges): 0.1 to 1 µM | IC50 (BACE1 [2]; Table III, IC50's in uM ranges): 0.1 to 1 µM

CC(C)(O)COc1ccc2c(c1)[C@]1(COC(N)=N1)c1cc(C#CC3CC3)ccc1O2 [compound 937]
IC50 (BACE1 [1]): < 0.1 µM | IC50 (BACE1 [2]): 0.1 to 1 µM

CC(C)(C)CC(=O)c1ccc2c(c1)[C@]1(CSC(N)=N1)c1cc(-c3cncnc3)ccc1O2 [compound 761]
IC50 (BACE1 [1]): < 0.1 µM | IC50 (BACE1 [2]): 0.1 to 1 µM

Cc1n[nH]cc1-c1ccc2c(c1)[C@@]1(COC(N)=N1)c1cc(OCC(C)(C)C)ccc1O2 [Example 129, (S)-2′-(3-methyl-1H-pyrazol-4-yl)-7′-(neopentyloxy)-5H-spiro[oxazole-4,9′-xanthen]-2-amine 2,2,2-trifluoroacetate]
IC50 (BACE1 [1]; Table III, IC50's in uM ranges): 0.1 to 1 µM | IC50 (BACE1 [2]; Table III, IC50's in uM ranges): > 5 µM

CC(C)(O)COc1ccc2c(c1Br)[C@]1(COC(N)=N1)c1cc(-c3cccnc3)ccc1O2 [compound 944]
IC50 (BACE1 [1]): < 0.1 µM | IC50 (BACE1 [2]): < 0.1 µM

CCCOc1cc2c(cc1F)Oc1ccc(-c3cncnc3)cc1[C@]21COC(N)=N1 [compound 941]
IC50 (BACE1 [1]): 0.1 to 1 µM | IC50 (BACE1 [2]): 1 to 5 µM

COC(C)(C)CCc1ccc2c(c1)[C@]1(COC(N)=N1)c1cc(-c3cncnc3)ccc1O2 [Example 122, (R)-2′-(3-methoxy-3-methylbutyl)-7′-(pyrimidin-5-yl)-5H-spiro[oxazole-4,9′-xanthen]-2-amine]
IC50 (BACE1 [1]; Table III, IC50's in uM ranges): < 0.1 µM | IC50 (BACE1 [2]; Table III, IC50's in uM ranges): < 0.1 µM

NC1=N[C@@]2(CO1)c1cc(-c3ccc(F)nc3)ccc1Oc1cnc(C3=CCOCC3)cc12 [compound 431, (5S)-3-(3,6-dihydro-2H-pyran-4-yl)-7-(6-fluoro-3-pyridinyl)spiro[chromeno[2,3-c]pyridine-5,4′-[1,3]oxazol]-2′-amine]
IC50 (BACE1 [1]): < 0.1 µM | IC50 (BACE1 [2]; HEK cells): < 0.1 µM

CC(C)(C)OC(=O)Cc1ccc2c(c1)[C@]1(COC(N)=N1)c1cc(-c3cncnc3)ccc1O2 [compound 765]
IC50 (BACE1 [1]): 0.1 to 1 µM | IC50 (BACE1 [2]): 0.1 to 1 µM

CC(C)(C)COc1ccc2c(c1)[C@]1(COC(N)=N1)c1cc(-c3cncnc3)cc(F)c1O2 [155b]
IC50 (BACE1 [1]; Table III, IC50's in uM ranges): < 0.1 µM | IC50 (BACE1 [2]; Table III, IC50's in uM ranges): 0.1 to 1 µM
